Measurements taken from ChEMBL document CHEMBL1129592 (J Med Chem, 1996).

Legend:
[1] = Selectivity ratio of IC50 values of 5-hydroxytryptamine 1A receptor vs 5-hydroxytryptamine 2 receptor
[2] = Selectivity ratio of IC50 values of 5-hydroxytryptamine 1A receptor vs Alpha-2 adrenergic receptor
[3] = target: T1, Adrenergic receptor alpha-1 (Rattus norvegicus, UniProt P15823+P23944+P43140); assay: Binding affinity towards rat Alpha-1 adrenergic receptor was evaluated using [3H]- prazosin as radioligand; type: protein assay
T1 sequence (P15823 whole entry): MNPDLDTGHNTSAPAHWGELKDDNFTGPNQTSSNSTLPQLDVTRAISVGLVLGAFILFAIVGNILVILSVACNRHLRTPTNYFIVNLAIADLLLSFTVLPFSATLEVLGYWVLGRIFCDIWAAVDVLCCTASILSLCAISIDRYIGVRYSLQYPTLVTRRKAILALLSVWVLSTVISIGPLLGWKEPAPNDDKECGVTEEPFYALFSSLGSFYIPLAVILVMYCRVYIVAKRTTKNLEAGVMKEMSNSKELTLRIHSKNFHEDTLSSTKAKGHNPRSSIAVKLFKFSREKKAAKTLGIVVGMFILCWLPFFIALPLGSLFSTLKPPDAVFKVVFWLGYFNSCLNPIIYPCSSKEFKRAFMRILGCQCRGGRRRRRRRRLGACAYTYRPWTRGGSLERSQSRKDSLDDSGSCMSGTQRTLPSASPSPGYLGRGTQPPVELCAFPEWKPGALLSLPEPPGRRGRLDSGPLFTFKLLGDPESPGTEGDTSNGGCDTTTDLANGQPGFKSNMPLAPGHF
T1 sequence (P23944 whole entry): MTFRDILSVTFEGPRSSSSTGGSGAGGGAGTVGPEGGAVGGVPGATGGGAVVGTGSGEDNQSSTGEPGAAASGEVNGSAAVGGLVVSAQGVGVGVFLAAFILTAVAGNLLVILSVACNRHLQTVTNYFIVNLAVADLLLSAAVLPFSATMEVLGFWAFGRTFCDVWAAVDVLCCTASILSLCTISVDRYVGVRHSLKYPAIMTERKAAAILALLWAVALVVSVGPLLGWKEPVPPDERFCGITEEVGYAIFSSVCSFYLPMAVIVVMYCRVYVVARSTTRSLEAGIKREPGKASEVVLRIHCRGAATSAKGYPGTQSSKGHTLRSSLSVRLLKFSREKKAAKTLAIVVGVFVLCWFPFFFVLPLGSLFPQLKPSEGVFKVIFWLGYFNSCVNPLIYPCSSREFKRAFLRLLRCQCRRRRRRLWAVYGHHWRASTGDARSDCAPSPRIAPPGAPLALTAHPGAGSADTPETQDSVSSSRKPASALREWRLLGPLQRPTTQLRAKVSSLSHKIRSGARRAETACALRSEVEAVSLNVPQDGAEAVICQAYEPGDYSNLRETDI
T1 sequence (P43140 whole entry): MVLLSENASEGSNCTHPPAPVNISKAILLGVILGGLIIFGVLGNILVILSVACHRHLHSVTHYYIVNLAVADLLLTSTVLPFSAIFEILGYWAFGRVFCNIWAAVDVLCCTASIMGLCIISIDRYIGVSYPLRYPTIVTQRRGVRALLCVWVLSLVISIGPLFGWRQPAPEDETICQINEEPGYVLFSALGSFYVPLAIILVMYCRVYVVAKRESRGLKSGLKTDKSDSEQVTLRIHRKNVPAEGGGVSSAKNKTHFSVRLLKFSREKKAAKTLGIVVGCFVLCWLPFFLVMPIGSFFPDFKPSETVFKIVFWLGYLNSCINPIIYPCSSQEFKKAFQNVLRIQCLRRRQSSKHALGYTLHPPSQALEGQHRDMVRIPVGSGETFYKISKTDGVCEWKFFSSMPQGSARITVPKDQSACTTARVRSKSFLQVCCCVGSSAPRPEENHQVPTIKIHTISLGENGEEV

[4] = target: 5-hydroxytryptamine receptor 2A (Rattus norvegicus, UniProt P14842); assay: Binding affinity towards rat 5-hydroxytryptamine 2A receptor was evaluated using [3H]- ketanserin as radioligand
[5] = Selectivity ratio of IC50 values of 5-hydroxytryptamine 1A receptor vs dopamine receptor D2
D(2) dopamine receptor = D(2) dopamine receptor (Rattus norvegicus, UniProt P61169); assay: Binding affinity towards rat Dopamine receptor D2 was evaluated using [3H]- spiroperidol as radioligand
[6] = target: T2, Adrenergic receptor alpha-2 (Rattus norvegicus, UniProt P22086+P19328+P22909); assay: Binding affinity towards rat Alpha-2 adrenergic receptor was evaluated using [3H]- yohimbine as radioligand; type: protein assay
T2 sequence (P22086 whole entry): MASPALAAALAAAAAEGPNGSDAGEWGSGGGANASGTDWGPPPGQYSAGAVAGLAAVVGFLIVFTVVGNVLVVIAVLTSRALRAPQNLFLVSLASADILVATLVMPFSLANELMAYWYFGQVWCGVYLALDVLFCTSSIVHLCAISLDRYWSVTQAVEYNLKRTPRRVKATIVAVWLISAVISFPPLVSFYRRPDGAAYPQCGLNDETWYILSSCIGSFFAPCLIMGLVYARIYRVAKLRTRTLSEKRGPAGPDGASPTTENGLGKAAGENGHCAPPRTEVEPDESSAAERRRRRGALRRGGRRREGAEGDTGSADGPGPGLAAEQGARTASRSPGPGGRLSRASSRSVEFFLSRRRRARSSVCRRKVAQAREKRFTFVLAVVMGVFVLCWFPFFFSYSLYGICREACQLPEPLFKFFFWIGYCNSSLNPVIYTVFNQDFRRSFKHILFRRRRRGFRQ
T2 sequence (P19328 whole entry): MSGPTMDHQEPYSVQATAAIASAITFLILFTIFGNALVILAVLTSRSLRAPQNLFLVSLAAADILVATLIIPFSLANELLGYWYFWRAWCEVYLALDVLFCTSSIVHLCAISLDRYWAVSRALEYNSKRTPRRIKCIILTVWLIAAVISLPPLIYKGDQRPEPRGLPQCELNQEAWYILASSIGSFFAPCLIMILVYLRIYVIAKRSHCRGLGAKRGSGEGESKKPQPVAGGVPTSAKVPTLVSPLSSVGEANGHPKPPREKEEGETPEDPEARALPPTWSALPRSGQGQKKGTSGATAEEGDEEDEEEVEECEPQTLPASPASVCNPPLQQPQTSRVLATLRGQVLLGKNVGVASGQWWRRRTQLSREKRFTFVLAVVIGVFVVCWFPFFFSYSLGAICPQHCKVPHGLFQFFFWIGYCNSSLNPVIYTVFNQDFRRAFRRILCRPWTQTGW
T2 sequence (P22909 whole entry): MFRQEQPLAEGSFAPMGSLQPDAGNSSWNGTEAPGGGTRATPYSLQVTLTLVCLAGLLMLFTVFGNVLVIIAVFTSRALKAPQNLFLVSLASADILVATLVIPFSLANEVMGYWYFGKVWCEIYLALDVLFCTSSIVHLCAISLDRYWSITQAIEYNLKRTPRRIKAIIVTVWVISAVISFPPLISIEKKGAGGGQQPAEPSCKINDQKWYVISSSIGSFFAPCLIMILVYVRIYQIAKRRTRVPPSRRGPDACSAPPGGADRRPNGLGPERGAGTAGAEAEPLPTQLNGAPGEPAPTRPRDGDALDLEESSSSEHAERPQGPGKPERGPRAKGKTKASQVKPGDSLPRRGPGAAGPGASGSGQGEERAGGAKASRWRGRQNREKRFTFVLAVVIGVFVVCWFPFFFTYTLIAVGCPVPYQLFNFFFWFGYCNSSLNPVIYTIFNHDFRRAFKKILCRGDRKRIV

[7] = target: T3, 5-hydroxytryptamine receptor 1A (Rattus norvegicus, UniProt P19327); assay: Binding affinity towards rat 5-hydroxytryptamine 1A receptor was evaluated using [3H]8-OH-DPAT as radioligand
T3 sequence (P19327 whole entry): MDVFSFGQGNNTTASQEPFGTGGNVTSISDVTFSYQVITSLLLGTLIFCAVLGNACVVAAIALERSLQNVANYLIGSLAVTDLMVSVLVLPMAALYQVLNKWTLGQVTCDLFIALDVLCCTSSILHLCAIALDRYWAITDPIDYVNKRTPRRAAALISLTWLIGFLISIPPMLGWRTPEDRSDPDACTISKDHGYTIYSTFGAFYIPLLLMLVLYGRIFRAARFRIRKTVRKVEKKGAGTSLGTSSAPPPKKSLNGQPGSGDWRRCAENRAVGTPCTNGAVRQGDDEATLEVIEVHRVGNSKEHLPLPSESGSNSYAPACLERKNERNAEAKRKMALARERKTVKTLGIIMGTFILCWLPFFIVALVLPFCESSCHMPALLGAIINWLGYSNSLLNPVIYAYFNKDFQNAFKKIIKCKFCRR

D(2) dopamine receptor, sequence (P61169 whole entry): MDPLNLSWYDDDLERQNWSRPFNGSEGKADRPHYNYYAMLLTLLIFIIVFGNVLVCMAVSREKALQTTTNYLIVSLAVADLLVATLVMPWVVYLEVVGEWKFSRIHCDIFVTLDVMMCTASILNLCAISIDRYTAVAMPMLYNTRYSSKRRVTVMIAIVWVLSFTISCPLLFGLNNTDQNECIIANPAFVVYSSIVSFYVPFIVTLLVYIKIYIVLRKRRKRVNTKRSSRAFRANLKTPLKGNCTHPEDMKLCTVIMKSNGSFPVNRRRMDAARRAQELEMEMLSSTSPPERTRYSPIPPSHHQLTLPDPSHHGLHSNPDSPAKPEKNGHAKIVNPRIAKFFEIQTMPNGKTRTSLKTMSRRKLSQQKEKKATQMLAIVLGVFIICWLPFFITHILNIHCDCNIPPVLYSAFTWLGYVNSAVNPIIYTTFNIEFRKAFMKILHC
5-hydroxytryptamine receptor 2A, sequence (P14842 whole entry): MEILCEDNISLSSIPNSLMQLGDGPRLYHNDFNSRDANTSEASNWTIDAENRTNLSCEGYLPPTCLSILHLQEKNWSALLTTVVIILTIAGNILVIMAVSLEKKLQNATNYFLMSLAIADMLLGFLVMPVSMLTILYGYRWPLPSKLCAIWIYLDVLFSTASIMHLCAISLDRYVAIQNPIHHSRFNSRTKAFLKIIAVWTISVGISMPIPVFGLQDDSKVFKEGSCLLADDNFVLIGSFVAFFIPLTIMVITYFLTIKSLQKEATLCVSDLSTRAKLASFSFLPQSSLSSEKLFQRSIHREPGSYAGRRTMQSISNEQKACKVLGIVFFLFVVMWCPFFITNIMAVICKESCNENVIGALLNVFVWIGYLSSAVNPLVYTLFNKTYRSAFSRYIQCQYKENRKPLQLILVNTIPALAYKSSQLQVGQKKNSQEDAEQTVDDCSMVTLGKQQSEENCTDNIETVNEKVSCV

Compound	Selectivity ratio [1]	Selectivity ratio [2]	IC50 [3] [µM]	IC50 [4] [µM]	Selectivity ratio [5]	IC50 (D(2) dopamine receptor) [µM]	IC50 [6] [µM]	IC50 [7] [µM]
COc1cccc2c1CCC(CCN1CCN(c3ccccc3)CC1)=C2	1	2	0.194	0.241	1	0.276	0.357	0.191
COc1cccc2c1CCCC2CCN1CCN(c2ccccc2)CC1 (centres undefined)	0.1	0.2	0.084	0.012	2	0.21	0.022	0.14
COc1ccc2c(c1)CCC(CCN1CCN(c3ccccc3)CC1)=C2	7	16	0.088	0.056	24	0.17	0.13	0.0082
COc1cccc2c1CCC/C2=C\CCN1CCN(c2ccccc2)CC1	31	15	0.12	0.58	5	0.1	0.29	
COc1ccc2c(c1)CCC(CCN1CCN(c3ccccc3)CC1)C2 (centres undefined)	23	43	0.079	0.086	32	0.12	0.16	0.0037
COc1cccc2c1C(CCCN1CCN(c3ccccc3)CC1)CCC2 (centres undefined)	11	3	0.13	0.61	1	0.062	0.14	0.056
COc1cccc2c1CCC(CCN1CCN(c3ccccc3)CC1)C2 (centres undefined)	3	11	0.1	0.16	2	0.13	0.6	0.054
COc1ccc2c(c1)C(CCCN1CCN(c3ccccc3)CC1)=CCC2	0.8		0.173	0.119	1	0.157		
CCCN(CCC)C1CCc2cccc(O)c2C1 (centres undefined) [8-OH-DPAT]				> 10				
COc1ccccc1N1CCN(CCCC2CCCc3c(OC)cccc32)CC1 (centres undefined)				0.33				
COc1cccc2c1CCC=C2CCCN1CCN(c2ccccc2)CC1	11			0.204	17			
COc1ccc2c(c1)C=C(CCN1CCN(c3ccccc3)CC1)CC2	15	18	0.058	0.106	22	0.136	0.122	0.0073
COc1cccc2c1CCCC2CCCN1CCN(c2ccccn2)CC1 (centres undefined)	462	89		0.25	259			
COc1cccc2c1CCCC2CCCN1CCN(c2ccccc2)CC1 (centres undefined)	460	520		0.23	220			
COc1ccc2c(c1)CCCC2CCCN1CCN(c2ccccc2)CC1 (centres undefined)	30	31	0.045	0.16	17	0.091	0.17	
COc1cccc2c1CCCC2CCCCN1CCN(c2ccccc2)CC1 (centres undefined)	28	51	0.13	0.42	7	0.11	0.77	0.015
COc1ccc2c(c1)CC(CCN1CCN(c3ccccc3)CC1)CC2 (centres undefined)	64	72	0.08	0.23	28	0.1	0.26	0.0036
